Legend:
[1] = system: dogs diagnosed as nervous; test: Collars and heart rate of nervous dogs, 24 h basal and fog horn startle (Example 5); assay type: in vivo, dog; details: collar
Procedure: Dogs diagnosed as being “nervous” were treated with four different treatments on different days: Placebo collar, Pheromone only collar (Serg), Rabbit INTEROMONE® collar (RP) (prepared in accordance with Example 1), and INTEROMONE® Plus Pheromone collar (Serg+RP) (prepared according to formulation provided in Example 3). Each dog experienced a given collar for 24 hours. Heart rate of the dogs was measured by remote telemetry. FIG. 22 illustrates the effects of the collars on heart rate collected over a period of 24 hours.
Each dog experienced a loud noise (fog horn) during a 2 second blast. The noise startled the dogs. Each dog had the collar on before, during and after the startle experience. […] The data illustrates that Serg alone had no effect on the startled dog heart rate. […] The data further indicate that only the RP is effective in reducing the heart rate of startled dogs.

dog = test: Room diffuser containing rabbit pheromone, use on dogs (Example 8); assay type: in vivo; details: 0.02% 2-methylbut-2-enal
Description: A room diffuser formulation containing rabbit pheromone can be prepared according to typical industry techniques described above. Table 4 is the list of ingredients that can be used to prepare a diffuser formulation comprising a rabbit pheromone.

In the case of `C/C=C(\C)C=O` [RP, 2-methylbut-2-enal], the “heart rate collected over 24 hours” value ([1]; basal testing, versus placebo, FIG. 22) is reported as “increased heart rate”, the “heart rate during startle” value ([1]; fog horn 2 second blast, versus control, FIG. 24) is reported as “lower heart rate during startle compared to control dogs” and the “change in dog behavior” value (dog) is reported as “significant change in behavior towards a calmer demeanor”.

— patent US8741965B2, “Method of administering a pheromone composition to an animal to modify the animals behavior over an extended period of time” (Sergeant's Pet Care Products, Inc., priority 2011, dated 2014)
